Where two headings read alike, the source gives them in different places.
Key:
Format in all cases: cell-based
URAT1 [1] = target: T1, URAT1 (Homo sapiens, UniProt Q96S37); test: [14C]-urate uptake by URAT1-expressing Xenopus oocytes
T1 sequence (Q96S37 1-553): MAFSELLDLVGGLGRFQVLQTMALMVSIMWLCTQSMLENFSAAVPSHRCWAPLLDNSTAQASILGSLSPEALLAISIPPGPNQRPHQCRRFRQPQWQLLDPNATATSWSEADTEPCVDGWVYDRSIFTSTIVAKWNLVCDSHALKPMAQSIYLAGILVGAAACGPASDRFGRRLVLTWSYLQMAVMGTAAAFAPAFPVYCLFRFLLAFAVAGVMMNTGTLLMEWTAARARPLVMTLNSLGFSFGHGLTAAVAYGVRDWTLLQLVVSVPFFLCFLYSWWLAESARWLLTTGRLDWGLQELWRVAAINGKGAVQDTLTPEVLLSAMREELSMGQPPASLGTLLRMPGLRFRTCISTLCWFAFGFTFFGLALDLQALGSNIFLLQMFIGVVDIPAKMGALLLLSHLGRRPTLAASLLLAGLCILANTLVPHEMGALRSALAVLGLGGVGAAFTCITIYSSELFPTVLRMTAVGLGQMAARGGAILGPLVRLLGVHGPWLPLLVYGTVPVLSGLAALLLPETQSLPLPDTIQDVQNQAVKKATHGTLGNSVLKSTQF
Excerpt: (§1) For uptake experiments, oocytes were washed four times with ND96 medium (pH 7.4) without pyruvate and gentamycin.

OAT10 [2] = target: T2, OAT10 (Homo sapiens, UniProt Q9Y226); test: [14C]-urate uptake by OAT10-expressing Xenopus oocytes; details: preloaded 50 nL of 100 mmol/L
T2 sequence (Q9Y226 whole entry): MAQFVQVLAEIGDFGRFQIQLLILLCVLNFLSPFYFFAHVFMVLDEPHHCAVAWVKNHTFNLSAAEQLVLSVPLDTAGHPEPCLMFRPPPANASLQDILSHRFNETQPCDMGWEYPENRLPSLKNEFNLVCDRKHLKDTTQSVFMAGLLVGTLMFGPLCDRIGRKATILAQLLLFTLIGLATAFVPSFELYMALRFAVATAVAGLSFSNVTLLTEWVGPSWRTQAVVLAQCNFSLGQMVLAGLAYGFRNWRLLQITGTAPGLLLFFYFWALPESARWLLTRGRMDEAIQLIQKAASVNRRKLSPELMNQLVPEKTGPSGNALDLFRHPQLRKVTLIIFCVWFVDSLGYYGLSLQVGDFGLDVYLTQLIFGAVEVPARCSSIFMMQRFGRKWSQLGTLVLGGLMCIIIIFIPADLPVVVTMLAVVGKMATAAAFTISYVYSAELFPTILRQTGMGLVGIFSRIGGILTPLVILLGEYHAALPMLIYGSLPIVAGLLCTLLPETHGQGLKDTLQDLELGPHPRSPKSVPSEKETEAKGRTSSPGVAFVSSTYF
Excerpt: as §1
(A) Time course of [^14C]‐urate uptake by control and […] oocytes. […] Inset, western blot analysis of OAT10 protein expressed in oocytes. […] (C) [^14C]‐urate transport properties of OAT10: voltage sensitivity and Na+‐dependence was examined by replacing extracellular NaCl by KCl or LiCl. Existence of urate/Cl^− exchange mechanism or Cl^− dependence or cis‐inhibitory effects of extracellular Cl^− on was verified by [^14C]‐urate uptake via OAT10 in the absence of extracellular Cl^− ion (0 Cl^−). In 0 Cl^− bath, NaCl was replaced by Na‐gluconate (Na‐Gluc), KCl by K‐gluconate (K‐Gluc), MgCl2 by Mg‐gluconate, and CaCl2 by Ca‐gluconate. […] Data are mean ± S.E. with n = 12–15.

OAT10 [3] = target: T2, OAT10; test: [14C]-nicotinate uptake by OAT10-expressing Xenopus oocytes; details: preloaded with nonlabeled anion; ND96
Experimental: as §1
Chloride ion‐dependence was also assessed; in 0 Cl^− bath, NaCl was replaced by Na‐gluconate (Na‐Gluc), KCl by K‐gluconate (K‐Gluc), MgCl2 by Mg‐gluconate, and CaCl2 by Ca‐gluconate. […] Data are mean ± S.E. with n = 12–15.

GLUT9a = target: T3, GLUT9a (Homo sapiens, UniProt Q9NRM0); test: [14C]-urate uptake by GLUT9a-expressing Xenopus oocytes
T3 sequence (Q9NRM0 1-540): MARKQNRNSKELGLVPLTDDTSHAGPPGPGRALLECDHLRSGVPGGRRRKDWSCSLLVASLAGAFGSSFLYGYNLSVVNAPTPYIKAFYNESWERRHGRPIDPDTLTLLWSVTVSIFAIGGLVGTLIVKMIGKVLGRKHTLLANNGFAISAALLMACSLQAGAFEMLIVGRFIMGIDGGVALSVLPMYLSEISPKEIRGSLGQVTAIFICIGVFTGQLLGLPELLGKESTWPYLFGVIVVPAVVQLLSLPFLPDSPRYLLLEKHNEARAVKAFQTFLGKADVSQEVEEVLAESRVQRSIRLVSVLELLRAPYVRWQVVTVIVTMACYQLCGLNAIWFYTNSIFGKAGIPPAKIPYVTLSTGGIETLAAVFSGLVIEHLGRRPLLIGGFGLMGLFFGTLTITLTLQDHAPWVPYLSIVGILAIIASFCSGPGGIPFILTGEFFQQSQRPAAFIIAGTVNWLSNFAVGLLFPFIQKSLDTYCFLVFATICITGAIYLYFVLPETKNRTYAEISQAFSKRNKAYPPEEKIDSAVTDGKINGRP
Excerpt: as §1
We sought to investigate the effect of tranilast on GLUT9a‐mediated [^14C]‐urate uptake in Xenopus laevis oocytes.

URAT1 [4] = target: T1, URAT1; test: [14C]-nicotinate uptake by URAT1-expressing Xenopus oocytes; details: for cis-inhibition of URAT1-mediated [14C]-nicotinate uptake by extracellular anion: data not shown
Excerpt: as §1
Data are mean ± S.E. with n = 12–15.

OAT3 = target: T4, OAT3 (Mus musculus, UniProt O88909); test: [14C]-urate uptake by OAT3-expressing Xenopus oocytes
T4 sequence (O88909 1-537): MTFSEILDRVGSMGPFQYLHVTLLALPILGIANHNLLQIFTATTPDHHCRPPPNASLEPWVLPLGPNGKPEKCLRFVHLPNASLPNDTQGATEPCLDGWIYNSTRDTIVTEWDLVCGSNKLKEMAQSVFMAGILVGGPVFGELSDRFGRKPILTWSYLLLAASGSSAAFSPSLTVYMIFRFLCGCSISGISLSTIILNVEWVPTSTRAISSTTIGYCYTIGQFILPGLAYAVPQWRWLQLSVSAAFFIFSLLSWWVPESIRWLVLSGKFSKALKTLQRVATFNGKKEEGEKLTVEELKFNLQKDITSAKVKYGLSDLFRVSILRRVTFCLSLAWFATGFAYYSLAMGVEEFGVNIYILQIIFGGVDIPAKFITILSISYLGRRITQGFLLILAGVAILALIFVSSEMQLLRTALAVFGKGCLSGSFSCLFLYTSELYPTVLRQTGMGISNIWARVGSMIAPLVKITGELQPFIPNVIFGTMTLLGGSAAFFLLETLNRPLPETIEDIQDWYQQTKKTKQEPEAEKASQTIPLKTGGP
Experimental: as §1
The uptake of [^14C]‐urate (40 μmol/L) was performed in ND96 medium (pH 7.4) at ~25°C for 1 h.

OAT4 = target: T5, OAT4 (Homo sapiens, UniProt Q9NSA0); test: [14C]-urate uptake by OAT4-expressing Xenopus oocytes; details: for trans-stimulatory effect of preloaded anion on OAT4-mediated urate uptake: preinjected 50 nL of 100 mmol/L; for cis-inhibition of OAT4-mediated, maleate trans-stimulated urate uptake: 10 mM extracellular anion
T5 sequence (Q9NSA0 1-550): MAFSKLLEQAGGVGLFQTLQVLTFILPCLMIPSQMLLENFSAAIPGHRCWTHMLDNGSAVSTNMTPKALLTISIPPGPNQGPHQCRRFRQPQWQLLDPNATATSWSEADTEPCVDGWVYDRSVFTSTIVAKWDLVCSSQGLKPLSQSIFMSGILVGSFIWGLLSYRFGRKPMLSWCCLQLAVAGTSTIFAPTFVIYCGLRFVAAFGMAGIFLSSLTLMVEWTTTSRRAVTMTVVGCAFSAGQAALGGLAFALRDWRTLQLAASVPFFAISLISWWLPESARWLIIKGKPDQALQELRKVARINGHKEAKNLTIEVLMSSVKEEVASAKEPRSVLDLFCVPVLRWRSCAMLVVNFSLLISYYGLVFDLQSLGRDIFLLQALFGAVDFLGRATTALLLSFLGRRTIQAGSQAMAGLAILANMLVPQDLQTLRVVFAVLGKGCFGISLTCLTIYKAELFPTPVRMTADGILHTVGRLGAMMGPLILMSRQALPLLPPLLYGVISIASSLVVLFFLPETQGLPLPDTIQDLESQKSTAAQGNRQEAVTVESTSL
Experimental: as §1
(A) The uptake of [^14C]‐urate by OAT4‐expressing oocytes was performed in ND96 medium (pH 7.4) at ~25°C for 1 h. Na^+‐dependence was examined by replacing extracellular NaCl by KCl. […] (B) The inhibition of [^14C]‐urate uptake by OAT4 was examined in the presence of extracellular organic anions (for cis‐inhibition) or uricosuric drugs at the indicated concentrations. […] Data are mean ± S.E. with n = 12–15.

Q: Which results are given for `CC(O)CC(=O)O` (stereo not drawn) [BHB, β‐hydroxy butyrate]?
A: trans-stimulatory effect of preloaded intracellular anion on URAT1-mediated urate uptake (URAT1 [1]): did not however detect any significant trans‐stimulatory effect; cis-inhibition of URAT1-mediated urate uptake by extracellular organic anion (URAT1 [1]; 10 mM extracellular anion): not cis‐inhibited; trans-stimulatory effect of preloaded anion on OAT10-mediated urate uptake (OAT10 [2]): modest trans‐stimulatory effect

Q: `Nc1ccc(C(=O)NCC(=O)O)cc1` [PAH, para‐aminohippurate] was tested. Which “trans-stimulatory effect of preloaded intracellular anion on URAT1-mediated urate uptake” value (URAT1 [1]) did it give?
A: did not however detect any significant trans‐stimulatory effect

Q: What about the “cis-inhibition of URAT1-mediated urate uptake by extracellular organic anion” value (from here on “cis-inhibition … by extracellular organic anion”) (URAT1 [1]; 10 mM extracellular anion) of the same compound?
A: not cis‐inhibited

Q: How did the “cis-inhibition … by extracellular organic anion” value (URAT1 [1]; 10 mM extracellular anion) turn out when `O=C(O)c1cnccn1` [PZA, pyrazine carboxylate] was run?
A: cis‐inhibition

Q: What about the “URAT1 urate uptake after preloading with anion (trans-stimulation), fold over preloaded control oocytes” value (URAT1 [1]; oocytes preloaded with nonlabeled anion) of the same compound?
A: 70–75 fold

Q: What about the “OAT10 [14C]-nicotinate uptake after preloading, fold over PZA-preloaded control oocytes” value (OAT10 [3]) of the same compound?
A: 118–120 fold

Q: And the “Effect of extracellular anion on GLUT9a activity” value (GLUT9a; Fig. 2C)?
A: no effect

Q: What about the “cis-inhibition of URAT1-mediated [14C]-nicotinate uptake by extracellular anion” value (URAT1 [4]) of the same compound?
A: cis‐inhibited

Q: And the “URAT1 [14C]-nicotinate uptake after preloading (trans-stimulation), fold over water-injected control oocytes” value (URAT1 [4]; preloaded anion)?
A: 19–20 fold

Q: And the “cis-inhibition of OAT3-mediated urate uptake by extracellular anion” value (OAT3; 10 mmol/L extracellular anion)?
A: almost completely cis‐inhibited

Q: And the “Effect of preloaded intracellular anion on OAT3 [14C]-urate uptake (trans-stimulation)” value (OAT3; preloaded anion)?
A: did not have any effect

Q: And the “trans-stimulatory effect of preloaded anion on OAT4-mediated urate uptake” value (OAT4)?
A: no significant effects

Q: And the “trans-stimulatory effect of preloaded anion on OAT10-mediated urate uptake” value (OAT10 [2])?
A: modest trans‐stimulatory effect

Q: `O=C(O)CC(O)(CC(=O)O)C(=O)O` [citrate] was tested. Which “cis-inhibition … by extracellular organic anion” value (URAT1 [1]; 10 mM extracellular anion) did it give?
A: not cis‐inhibited

Q: Which “cis-inhibition … by extracellular organic anion” value (URAT1 [1]) does the source give for `O=CO` [formate] here?
A: not cis‐inhibited

Q: `CC(O)C(=O)O` (stereo not shown) [lactate] was tested. Which “trans-stimulatory effect of preloaded intracellular anion on URAT1-mediated urate uptake” value (URAT1 [1]) did it give?
A: did not however detect any significant trans‐stimulatory effect

Q: And the “cis-inhibition … by extracellular organic anion” value (URAT1 [1]; 10 mM extracellular anion)?
A: not cis‐inhibited

Q: Which results are given for `O=C(O)/C=C\C(=O)O` [maleate]?
A: cis-inhibition of URAT1-mediated urate uptake by extracellular organic anion (URAT1 [1]; 10 mM extracellular anion): not cis‐inhibited; cis-inhibition of OAT4-mediated, maleate trans-stimulated urate uptake (OAT4): efficiently cis‐inhibited; trans-stimulatory effect of preloaded anion on OAT4-mediated urate uptake (OAT4): modest trans‐stimulatory effect

Q: For `O=C(O)C(=O)O` [oxalate], which “cis-inhibition … by extracellular organic anion” value (URAT1 [1]; 10 mM extracellular anion) is on record?
A: not cis‐inhibited

Q: For `CC(=O)C(=O)O` [pyruvate], which “cis-inhibition … by extracellular organic anion” value (URAT1 [1]; 10 mM extracellular anion) is on record?
A: not cis‐inhibited

Q: What does the source list for `O=C(O)c1ccccc1O` [salicylate]?
A: cis-inhibition of URAT1-mediated urate uptake by extracellular organic anion (URAT1 [1]): cis‐inhibition; Effect of extracellular anion on GLUT9a activity (GLUT9a): no effect; cis-inhibition of URAT1-mediated [14C]-nicotinate uptake by extracellular anion (URAT1 [4]): cis‐inhibited

Q: With `O=C(O)CCC(=O)O` [succinate] as the compound, how does the “cis-inhibition … by extracellular organic anion” value (URAT1 [1]) read?
A: not cis‐inhibited

Q: And the “cis-inhibition of OAT4-mediated, maleate trans-stimulated urate uptake” value (OAT4)?
A: much less cis‐inhibition

Q: And the “trans-stimulatory effect of preloaded anion on OAT4-mediated urate uptake” value (OAT4)?
A: no significant effects

Q: `O=c1[nH]c(=O)c2[nH]c(=O)[nH]c2[nH]1` [urate] was tested. Which “cis-inhibition of URAT1-mediated [14C]-nicotinate uptake by extracellular anion” value (URAT1 [4]) did it give?
A: cis‐inhibited

Reference: publication PMC5368959, “Uricosuric targets of tranilast” (Pharmacology Research & Perspectives, 2017)
